Reference: article PMC12298351, “Novel 3,19-(N-Phenyl-3-(4-fluorophenyl)-pyrazole) Acetal of Andrographolide Promotes Cell Cycle Arrest and Apoptosis in MDA-MB-231 Breast Cancer Cells” (Pharmaceuticals, 2025)

Assays:
SNB-19 = type: cell-based; conditions: SNB-19, CNS
TK-10 = type: cell-based; conditions: TK-10, Renal
BT-549 = type: cell-based; conditions: BT-549, Breast
HCC-2998 = conditions: HCC-2998, Colon
KM12 = conditions: KM12, Colon
SW-620 = conditions: SW-620, Colon
SF-268 = conditions: SF-268, CNS
SF-295 = conditions: SF-295, CNS
SNB-75 = conditions: SNB-75, CNS
MDA-MB-435 = conditions: MDA-MB-435, Melanoma
SK-MEL-2 = conditions: SK-MEL-2, Melanoma
SK-MEL-5 = conditions: SK-MEL-5, Melanoma
IGROV1 = conditions: IGROV1, Ovarian
786-0 = conditions: 786-0, Renal
A498 = conditions: A498, Renal
CAKI-1 = conditions: CAKI-1, Renal
RXF 393 = conditions: RXF 393, Renal
UO-31 = conditions: UO-31, Renal
MCF7 = conditions: MCF7, Breast
[1] = read-out: 50% lethal concentration (LC50)
[2] = read-out: 50% lethal concentration (LC50), Leukemia
[3] = read-out: 50% lethal concentration (LC50), Renal
[4] = read-out: 50% lethal concentration (LC50), Breast

**Q.** What does the source list for `C=C1CCC2C3(C)COC(c4cn(-c5ccccc5)nc4-c4cccc(Cl)c4)OC3CCC2(C)C1CC=C1C(=O)OCC1O` (centres unmarked) [1d]?
**A.** GI50 (SNB-19): 2.24 µM; Total growth inhibition (TGI) (SNB-19): 6.04 µM; CC50 (SNB-19; [1]): 54.8 µM; GI50 (TK-10): 2.14 µM; Total growth inhibition (TGI) (TK-10): 4.56 µM; CC50 (TK-10; [1]): 9.71 µM; GI50 (BT-549): 1.57 µM; Total growth inhibition (TGI) (BT-549): 3.63 µM; GI50 (CCRF-CEM; Leukemia): 1.32 µM; Total growth inhibition (TGI) (CCRF-CEM; Leukemia): 16.3 µM; CC50 (CCRF-CEM; [2]): > 100 µM; GI50 (HL-60(TB); Leukemia): 1.38 µM; Total growth inhibition (TGI) (HL-60(TB); Leukemia): 4.97 µM; CC50 (HL-60(TB); [2]): > 100 µM; GI50 (SR; Leukemia): 1.29 µM; Total growth inhibition (TGI) (SR; Leukemia): 4.03 µM; CC50 (SR; [2]): > 100 µM; Total growth inhibition (TGI) (EKVX; Non-Small Cell Lung): 4.95 µM; GI50 (EKVX; Non-Small-Cell Lung): 2.21 µM; CC50 (EKVX; read-out: 50% lethal concentration (LC50), Non-Small Cell Lung): > 100 µM; Total growth inhibition (TGI) (HOP-62; HOP-62, Non-Small Cell Lung): 4.29 µM; GI50 (HOP-62; HOP-62, Non-Small-Cell Lung): 1.78 µM; CC50 (HOP-62; read-out: 50% lethal concentration (LC50), HOP-62, Non-Small Cell Lung): > 100 µM; Total growth inhibition (TGI) (HOP-92; HOP-92, Non-Small Cell Lung): 3.11 µM; GI50 (HOP-92; HOP-92, Non-Small-Cell Lung): 1.56 µM; CC50 (HOP-92; read-out: 50% lethal concentration (LC50), HOP-92, Non-Small Cell Lung): 6.2 µM; Total growth inhibition (TGI) (NCI-H226; NCI-H226, Non-Small Cell Lung): 3.37 µM; GI50 (NCI-H226; NCI-H226, Non-Small-Cell Lung): 1.76 µM; CC50 (NCI-H226; read-out: 50% lethal concentration (LC50), NCI-H226, Non-Small Cell Lung): 6.46 µM; Total growth inhibition (TGI) (NCI-H460; NCI-H460, Non-Small Cell Lung): 3.34 µM; GI50 (NCI-H460; NCI-H460, Non-Small-Cell Lung): 1.68 µM; CC50 (NCI-H460; read-out: 50% lethal concentration (LC50), NCI-H460, Non-Small Cell Lung): 6.66 µM; GI50 (HCC-2998): 1.81 µM; Total growth inhibition (TGI) (HCC-2998): 3.37 µM; GI50 (KM12): 1.67 µM; Total growth inhibition (TGI) (KM12): 3.32 µM; GI50 (SW-620): 1.53 µM; Total growth inhibition (TGI) (SW-620): 3.4 µM; CC50 (SW-620; [1]): 7.55 µM; GI50 (SF-268): 1.6 µM; Total growth inhibition (TGI) (SF-268): 3.34 µM; CC50 (SF-268; [1]): 6.94 µM; GI50 (SF-295): 1.42 µM; Total growth inhibition (TGI) (SF-295): 2.75 µM; CC50 (SF-295; [1]): 5.36 µM; GI50 (SNB-75): 1.12 µM; Total growth inhibition (TGI) (SNB-75): 3.14 µM; CC50 (SNB-75; [1]): 8.84 µM; GI50 (MDA-MB-435): 1.56 µM; Total growth inhibition (TGI) (MDA-MB-435): 3.19 µM; CC50 (MDA-MB-435; [1]): 6.49 µM; GI50 (SK-MEL-2): 1.57 µM; Total growth inhibition (TGI) (SK-MEL-2): 3.05 µM; GI50 (SK-MEL-5): 1.63 µM; Total growth inhibition (TGI) (SK-MEL-5): 3 µM; CC50 (SK-MEL-5; [1]): 5.53 µM; GI50 (IGROV1): 1.39 µM; Total growth inhibition (TGI) (IGROV1): 3.22 µM; CC50 (IGROV1; [1]): 7.5 µM; GI50 (786-0): 2.31 µM; Total growth inhibition (TGI) (786-0): 6.1 µM; CC50 (786-0; [1]): 83.4 µM; GI50 (A498): 2.9 µM; Total growth inhibition (TGI) (A498): 11.4 µM; CC50 (A498; [1]): 38.1 µM; GI50 (ACHN; Renal): 1.64 µM; Total growth inhibition (TGI) (ACHN; Renal): 3.01 µM; CC50 (ACHN; [3]): 5.52 µM; GI50 (CAKI-1): 1.32 µM; Total growth inhibition (TGI) (CAKI-1): 2.66 µM; CC50 (CAKI-1; [1]): 5.39 µM; GI50 (RXF 393): 1.05 µM; Total growth inhibition (TGI) (RXF 393): 2.31 µM; CC50 (RXF 393; [1]): 5.07 µM; GI50 (SN12C; Renal): 1.65 µM; Total growth inhibition (TGI) (SN12C; Renal): 3.62 µM; CC50 (SN12C; [3]): 7.92 µM; GI50 (UO-31): 1.3 µM; Total growth inhibition (TGI) (UO-31): 2.71 µM; CC50 (UO-31; [1]): 5.63 µM; GI50 (MCF7): 1.48 µM; Total growth inhibition (TGI) (MCF7): 66.8 µM; CC50 (MCF7; [1]): > 100 µM; GI50 (MDA-MB-231; MDA-MB-231, Breast): 1.49 µM; Total growth inhibition (TGI) (MDA-MB-231; MDA-MB-231/ATCC, Breast): 2.99 µM; CC50 (MDA-MB-231; read-out: 50% lethal concentration (LC50), MDA-MB-231/ATCC, Breast): 5.97 µM; GI50 (HS 578T; Breast): 1.91 µM; Total growth inhibition (TGI) (HS 578T; Breast): 4.85 µM; CC50 (HS 578T; [4]): > 100 µM; GI50 (T-47D; Breast): 1.63 µM; Total growth inhibition (TGI) (T-47D; Breast): 4.76 µM; CC50 (T-47D; [4]): > 100 µM
